Calls of active or inactive are those of the source. The rule behind the calls is not given here.
Legend:
[1] = biological target: T1, Orexin receptor type 2 (Homo sapiens) (UniProt O43614); assay: Antagonist activity at OX2 receptor (unknown origin) expressed in RD-HGA16 cells assessed as inhibition orexin A-induced calcium mobilization at 10 uM by fluorescence assay; assay type: functional, cell-based
T1 sequence (whole entry): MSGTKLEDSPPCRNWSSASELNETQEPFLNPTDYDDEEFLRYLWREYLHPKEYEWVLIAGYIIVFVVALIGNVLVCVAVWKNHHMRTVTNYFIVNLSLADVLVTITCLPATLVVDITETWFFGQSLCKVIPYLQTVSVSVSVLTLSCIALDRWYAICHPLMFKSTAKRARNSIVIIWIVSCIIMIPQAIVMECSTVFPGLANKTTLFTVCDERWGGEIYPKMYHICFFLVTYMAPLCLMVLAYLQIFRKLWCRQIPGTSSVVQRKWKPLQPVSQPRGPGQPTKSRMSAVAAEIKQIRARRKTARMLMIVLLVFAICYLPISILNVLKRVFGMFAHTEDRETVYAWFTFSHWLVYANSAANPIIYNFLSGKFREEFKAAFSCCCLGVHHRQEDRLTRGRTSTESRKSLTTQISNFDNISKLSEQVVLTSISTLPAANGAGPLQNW

[2] = biological target: T2, Orexin/Hypocretin receptor type 1 (Homo sapiens) (UniProt O43613); assay: Antagonist activity at OX1 receptor (unknown origin) expressed in RD-HGA16 cells assessed as inhibition orexin A-induced calcium mobilization by fluorescence assay; assay type: functional, cell-based
T2 sequence (whole entry): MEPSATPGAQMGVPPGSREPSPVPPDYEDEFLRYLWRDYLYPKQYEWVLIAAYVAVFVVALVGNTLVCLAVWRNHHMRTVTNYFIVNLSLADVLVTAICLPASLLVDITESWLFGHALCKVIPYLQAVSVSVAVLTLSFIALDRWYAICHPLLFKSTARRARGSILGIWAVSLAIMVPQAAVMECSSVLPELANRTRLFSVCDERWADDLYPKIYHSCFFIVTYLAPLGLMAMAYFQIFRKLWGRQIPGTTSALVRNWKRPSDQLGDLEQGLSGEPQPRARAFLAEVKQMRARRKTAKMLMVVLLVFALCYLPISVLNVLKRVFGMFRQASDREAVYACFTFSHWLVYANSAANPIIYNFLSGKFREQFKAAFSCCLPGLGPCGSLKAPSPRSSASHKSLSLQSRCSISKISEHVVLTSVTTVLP

[3] = biological target: T2, Orexin/Hypocretin receptor type 1 (Homo sapiens); assay: Agonist activity at OX1 receptor (unknown origin) expressed in RD-HGA16 cells assessed as calcium mobilization at 10 uM by fluorescence assay; assay type: functional, cell-based
[4] = species: Homo sapiens; assay: Selectivity ratio of Ke for OX2 receptor (unknown origin) to Ke for OX1 receptor (unknown origin)

Compound	inhibition [1] [%]	Ke(app) [2] [nM]	Activity [3]	Ratio [4]
COc1ccc(CC2c3cc(OC)c(OC)cc3CCN2CC(=O)Nc2cccc(-c3ccccc3)c2)cc1OC (stereo not given)	< 30	8980	–	–
CCCC(=O)Oc1cc2c(cc1OC)CCN(CC(=O)NCc1ccccc1)C2Cc1ccc(OC)c(OC)c1 (stereo not given)	–	78.5	inactive	–
COc1ccc(CC2c3cc(OC)c(OC)cc3CCN2CC(=O)N2CCc3ccccc3C2)cc1OC (stereo not given)	–	3030	–	3
COc1ccc(CC2c3cc(OS(=O)(=O)c4ccccc4)c(OC)cc3CCN2CC(=O)NCc2ccccc2)cc1OC (stereo not given)	–	30.5	inactive	95.1
COc1ccc(CC2c3cc(OC)c(OC)cc3CCN2CC(=O)N2CCCC(c3ccccc3)C2)cc1OC (stereo not given)	–	3530	–	2.6
COc1cc2c(cc1O)C(Cc1ccc(OC)c(OC)c1)N(CC(=O)NCc1ccccc1)CC2 (stereo not given)	–	1530	–	3.8
COc1ccc(CC2c3cc(OC)c(OC)cc3CCN2CC(=O)N2CCC(c3ccccc3)CC2)cc1OC (stereo not given)	< 30	> 10000	–	–
COc1ccc(CC2c3cc(OS(C)(=O)=O)c(OC)cc3CCN2CC(=O)NCc2ccccc2)cc1OC (stereo not given)	–	7.3	inactive	297
COc1ccc(CC2c3cc(OCC(F)(F)F)c(OC)cc3CCN2CC(=O)NCc2ccccc2)cc1OC (stereo not given)	–	9.4	inactive	–
COc1ccc(CC2c3cc(OS(=O)(=O)c4ccc(C)cc4)c(OC)cc3CCN2CC(=O)NCc2ccccc2)cc1OC (stereo not given)	< 30	118	inactive	–
COc1ccc(CC2c3cc(OCc4ccccn4)c(OC)cc3CCN2CC(=O)NCc2ccccc2)cc1OC (stereo not given)	< 30	101	inactive	–
COc1ccc(CC2c3cc(OC)c(OC)cc3CCN2CC(=O)NC2CC(C)Nc3ccccc32)cc1OC (stereo not given)	< 30	7170	–	–
COc1ccc(CC2c3cc(OS(=O)(=O)C(F)(F)F)c(OC)cc3CCN2CC(=O)NCc2ccccc2)cc1OC (stereo not given)	–	10	inactive	–
COc1ccc(CC2c3cc(OC)c(OC)cc3CCN2CC(=O)Nc2ccnc3c(F)cccc23)cc1OC (stereo not given)	< 30	4220	–	–
COc1ccc(CC2c3cc(OC)c(OC)cc3CCN2CC(=O)Nc2ccccc2-c2ccccc2)cc1OC (stereo not given)	–	944	inactive	1.9
COc1ccc(CC2c3cc(OCC4CCCCC4)c(OC)cc3CCN2CC(=O)NCc2ccccc2)cc1OC (stereo not given)	< 30	> 10000	–	–
COc1ccc(CC2c3cc(OCCCCOc4ccccc4)c(OC)cc3CCN2CC(=O)NCc2ccccc2)cc1OC (stereo not given)	–	43.5	inactive	–
COc1ccc(CC2c3cc(OCC(F)(F)F)c(OC)cc3CCN2CC(=O)NCc2ccccn2)cc1OC (stereo not given)	–	22.5	inactive	–
COc1ccc(CC2c3cc(OCc4ccccc4)c(OC)cc3CCN2CC(=O)NCc2ccccc2)cc1OC (stereo not given)	< 30	402	inactive	–
COc1ccc(CC2c3cc(OC)c(OC)cc3CCN2CC(=O)N2CCN(c3ccccc3)CC2)cc1OC (stereo not given)	< 30	> 10000	–	–
COc1ccc(CC2c3cc(OCc4cccnc4)c(OC)cc3CCN2CC(=O)NCc2ccccc2)cc1OC (stereo not given)	< 30	277	inactive	–
CCCCCCOc1cc2c(cc1OC)CCN(CC(=O)NCc1ccccc1)C2Cc1ccc(OC)c(OC)c1 (stereo not given)	–	315	inactive	–
COc1ccc(CC2c3cc(OC)c(OC)cc3CCN2CC(=O)Nc2ccc(-c3ccccc3)cc2)cc1OC (stereo not given)	< 30	2240	–	–
COc1ccc(CC2c3cc(OCCN4CCCCC4)c(OC)cc3CCN2CC(=O)NCc2ccccc2)cc1OC (stereo not given)	< 30	8040	–	–

Next, values leading:

inhibition [1] [%]	Ke(app) [2] [nM]	Activity [3]	Ratio [4]	Compound
–	199	inactive	–	COc1ccc(CC2c3cc(OC)c(OC)cc3CCN2CC(=O)NCc2ccccc2)cc1OC (stereo not given)
–	162	inactive	14	COc1ccc(CC2c3cc(OC)c(OC)cc3CCN2CC(=O)NCc2ccc(Cl)cc2)cc1OC (stereo not given)
–	41.1	inactive	15.9	COc1ccc(CC2c3cc(OC)c(OC)cc3CCN2CC(=O)NC2CCCc3ccccc32)cc1OC (stereo not given)
–	2090	–	–	COc1ccc(CC2c3cc(OC)c(OC)cc3CCN2CC(=O)N(C)Cc2ccccc2)cc1OC (stereo not given)
< 30	> 10000	–	–	COc1ccc(CC2c3cc(OC)c(OC)cc3CCN2CC(=O)N[C@@H](C)c2ccccc2)cc1OC (single isomer, unassigned; diastereomer 1)
< 30	4740	–	–	COc1ccc(CC2c3cc(OCCN(C)C)c(OC)cc3CCN2CC(=O)NCc2ccccc2)cc1OC (stereo not given)
< 30	732	inactive	–	COc1ccc(CC2c3cc(OC)c(OC)cc3CCN2CC(=O)Nc2cccc3ccccc23)cc1OC (stereo not given)
< 30	7640	–	–	CNC(=O)CNC(=O)CN1CCc2cc(OC)c(OC)cc2C1Cc1ccc(OC)c(OC)c1 (stereo not given)
–	152	inactive	–	COc1ccc(CC2c3cc(OC)c(OC)cc3CCN2CC(=O)NCc2cccnc2)cc1OC (stereo not given)
–	261	inactive	–	COc1ccc(CC2c3cc(OC)c(OC)cc3CCN2CC(=O)NCc2ccccn2)cc1OC (stereo not given)
< 30	1010	–	–	COc1ccc(CC2c3cc(OC)c(OC)cc3CCN2CC(=O)NCc2ccncc2)cc1OC (stereo not given)
–	17.3	inactive	–	CCCOc1cc2c(cc1OC)CCN(CC(=O)NCc1ccccc1)C2Cc1ccc(OC)c(OC)c1 (stereo not given)
–	54.7	inactive	34.6	CCCCOc1cc2c(cc1OC)CCN(CC(=O)NCc1ccccc1)C2Cc1ccc(OC)c(OC)c1 (stereo not given)
< 30	2370	–	–	COc1ccc(CC2c3cc(OC)c(OC)cc3CCN2CC(=O)NCCCc2ccccc2)cc1OC (stereo not given)
–	3680	–	0.7	CCCCCCNC(=O)Nc1ccc(CNC(=O)CN2CCc3cc(OC)c(OC)cc3C2Cc2ccc(OC)c(OC)c2)cc1 (stereo not given)
–	20.6	inactive	–	CCCOc1cc2c(cc1OC)CCN(CC(=O)NCc1ccccn1)C2Cc1ccc(OC)c(OC)c1 (stereo not given)
–	41.9	inactive	–	CCCOc1cc2c(cc1OC)CCN(CC(=O)NCc1cccnc1)C2Cc1ccc(OC)c(OC)c1 (stereo not given)

inhibition [1] [%]	Ke(app) [2] [nM]	Activity [3]	Ratio [4]	Compound
–	326	inactive	12	COc1ccc(CC2c3cc(OCCC(C)C)c(OC)cc3CCN2CC(=O)NCc2ccccc2)cc1OC (stereo not given)
–	> 10000	–	–	CCCCCC(=O)Nc1ccc(CNC(=O)CN2CCc3cc(OC)c(OC)cc3C2Cc2ccc(OC)c(OC)c2)cc1 (stereo not given)
< 30	6630	–	–	COC(=O)CNC(=O)CN1CCc2cc(OC)c(OC)cc2C1Cc1ccc(OC)c(OC)c1 (stereo not given)
–	589	inactive	3.9	CCCCCCCNC(=O)CN1CCc2cc(OC)c(OC)cc2C1Cc1ccc(OC)c(OC)c1 (stereo not given)
< 30	4510	–	–	COc1ccc(CC2c3cc(OC)c(OC)cc3CCN2CC(=O)Nc2cc(C)nc3ccccc23)cc1OC (stereo not given)
< 30	> 10000	–	–	COc1ccc(CC2c3cc(OC)c(OC)cc3CCN2CC(=O)NCC(N)=O)cc1OC (stereo not given)
< 30	> 10000	–	–	COc1ccc(CC2c3cc(OC)c(OC)cc3CCN2CC(=O)NCCCN(C)C)cc1OC (stereo not given)
< 30	3250	–	–	COc1ccc(CC2c3cc(OC)c(OC)cc3CCN2CC(=O)NCCc2ccccc2)cc1OC (stereo not given)
–	3230	–	–	COc1ccc(CC2c3cc(OC)c(OC)cc3CCN2CC(=O)NCc2ccc(N(C)C)cc2)cc1OC (stereo not given)
< 30	5740	–	–	COc1ccc(CC2c3cc(OCCCCN(C)C)c(OC)cc3CCN2CC(=O)NCc2ccccc2)cc1OC (stereo not given)
–	30	inactive	–	CCOc1cc2c(cc1OC)CCN(CC(=O)NCc1ccccc1)C2Cc1ccc(OC)c(OC)c1 (stereo not given)
< 30	> 10000	–	–	COc1ccc(CC2c3cc(OC)c(OC)cc3CCN2CC(=O)OCc2ccccc2)cc1OC (stereo not given)
< 30	> 10000	–	–	COc1ccc(CC2c3cc(OC)c(OC)cc3CCN2CC(=O)NCc2ccc(NC(C)=O)cc2)cc1OC (stereo not given)
–	15.7	inactive	–	CCOc1cc2c(cc1OC)CCN(CC(=O)NCc1cccnc1)C2Cc1ccc(OC)c(OC)c1 (stereo not given)
–	279	inactive	12.4	COc1ccc(CC2c3cc(OC)c(OC)cc3CCN2CC(=O)NCc2ccc(F)cc2)cc1OC (stereo not given)
–	87.4	inactive	–	CCOc1cc2c(cc1OC)CCN(CC(=O)NCc1ccccn1)C2Cc1ccc(OC)c(OC)c1 (stereo not given)

Reference: ChEMBL document CHEMBL2417373, “Substituted tetrahydroisoquinolines as selective antagonists for the orexin 1 receptor” (J Med Chem, 2013)
